Laboratory results from ChEMBL document CHEMBL3885861, “Open TG-GATES”.

Species on record: Rattus norvegicus
Assay: Open TG-GATES - Regimen: Daily Repeat
Assay type: toxicity, organism-based, Sprague-Dawley
Design: regimen Daily Repeat, gender Male, age 6 weeks
Details: in vivo, po, 10 mg/kg, […], route gavage, dose level Low; for KIDNEY_L / KIDNEY_R / KIDNEY_TOTAL: tissue Kidney; for LIVER: tissue Liver; for ALP / ALT / AST / BUN / CRE / Ca / DBIL / GLC / IP / K / LDH / Na / PL / RALB / TBIL / TC / TG / TP / gamma-GTP: tissue Plasma

CSc1ccc2c(c1)N(CCC1CCCCN1C)c1ccccc1S2 (configuration not stated) [THIORIDAZINE] was tested, and the Fbg (tissue Blood, time 28 day) was 233 mg/dL, the Hb (tissue Blood, time 28 day) was 15.4 g/dL and the Ht (tissue Blood, time 28 day) was 45.5%. It also gave a Lym (tissue Blood, time 28 day) of 83.6%, an MCH (tissue Blood, time 28 day) of 19.8 pg and an MCHC (tissue Blood, time 28 day) of 33.9%. It also gave an MCV (tissue Blood, time 28 day) of 58.3 fL, a Mono (tissue Blood, time 28 day) of 6.2% and a Neu (tissue Blood, time 28 day) of 9.6%. For the same compound, the PT (tissue Blood, time 28 day) was 12.1 s, the Plat (tissue Blood, time 28 day) was 121.4 x10_4/uL and the RBC (tissue Blood, time 28 day) was 780.6 x10_4/ul. It also gave a Ret (tissue Blood, time 28 day) of 2.6%, a WBC (tissue Blood, time 28 day) of 150 x10_2/uL and a KIDNEY_L (time 7 day) of 1.1 g. For the same compound, the KIDNEY_R (time 7 day) was 1.1 g, the KIDNEY_TOTAL (time 7 day) was 2.3 g and the KIDNEY_L (time 14 day) was 1.3 g. It also gave a KIDNEY_R (time 14 day) of 1.4 g, a KIDNEY_TOTAL (time 14 day) of 2.7 g and a KIDNEY_L (time 28 day) of 1.5 g. For the same compound, the KIDNEY_R (time 28 day) was 1.5 g, the KIDNEY_TOTAL (time 28 day) was 3 g and the LIVER (time 7 day) was 13.2 g. It also gave an LIVER (time 14 day) of 15.4 g, an LIVER (time 28 day) of 17.2 g and an ALP (time 7 day) of 792.4 IU/L. It also gave an ALT (time 7 day) of 34 IU/L, an AST (time 7 day) of 61 IU/L and a BUN (time 7 day) of 18.4 mg/dL. For the same compound, the CRE (time 7 day) was 0.5 mg/dL, the Ca (time 7 day) was 11.1 mg/dL and the DBIL (time 7 day) was 0 mg/dL. It also gave a GLC (time 7 day) of 197.2 mg/dL, an IP (time 7 day) of 8.3 mg/dL and a K (time 7 day) of 4.8 meq/L. It also gave an LDH (time 7 day) of 84 IU/L, a Na (time 7 day) of 139.4 meq/L and a PL (time 7 day) of 172.8 mg/dL. For the same compound, the RALB (time 7 day) was 4 g/dL, the TBIL (time 7 day) was 0.3 mg/dL and the TC (time 7 day) was 88.4 mg/dL. For the same compound, the TG (time 7 day) was 118.6 mg/dL, the TP (time 7 day) was 6 g/dL and the gamma-GTP (time 7 day) was 1.2 IU/L. It also gave an ALP (time 14 day) of 779.6 IU/L, an ALT (time 14 day) of 33.6 IU/L and an AST (time 14 day) of 62.8 IU/L. The BUN (time 14 day) was 20.4 mg/dL, the CRE (time 14 day) was 0.6 mg/dL and the Ca (time 14 day) was 10.9 mg/dL. For the same compound, the DBIL (time 14 day) was 0.002 mg/dL, the GLC (time 14 day) was 178.6 mg/dL and the IP (time 14 day) was 7.8 mg/dL. It also gave a K (time 14 day) of 5.2 meq/L, an LDH (time 14 day) of 110.2 IU/L and a Na (time 14 day) of 139.4 meq/L. It also gave a PL (time 14 day) of 167.8 mg/dL, an RALB (time 14 day) of 4.1 g/dL and a TBIL (time 14 day) of 0.3 mg/dL. The TC (time 14 day) was 81.2 mg/dL, the TG (time 14 day) was 158 mg/dL and the TP (time 14 day) was 6.3 g/dL. The gamma-GTP (time 14 day) was 1.2 IU/L, the ALP (time 28 day) was 564 IU/L and the ALT (time 28 day) was 32.4 IU/L. The AST (time 28 day) was 63.4 IU/L, the BUN (time 28 day) was 21.2 mg/dL and the CRE (time 28 day) was 0.6 mg/dL. It also gave a Ca (time 28 day) of 10.7 mg/dL, a DBIL (time 28 day) of 0 mg/dL and a GLC (time 28 day) of 180.8 mg/dL. The IP (time 28 day) was 7.3 mg/dL, the K (time 28 day) was 4.3 meq/L and the LDH (time 28 day) was 131.8 IU/L. It also gave a Na (time 28 day) of 140.4 meq/L, a PL (time 28 day) of 162.4 mg/dL and an RALB (time 28 day) of 4.2 g/dL. The TBIL (time 28 day) was 0.2 mg/dL, the TC (time 28 day) was 74 mg/dL and the TG (time 28 day) was 177.2 mg/dL. For the same compound, the TP (time 28 day) was 6.4 g/dL.
